Laboratory results published in patent publication EP0656952B1, “CATIONIC PEPTIDES AND METHOD FOR PRODUCTION” (THE UNIVERSITY OF BRITISH COLUMBIA, priority 1992, dated 1994).

How the values were obtained:
[1] = system: S. typhimurium defensin sensitive strain (C590); experiment: Minimum inhibitory concentration (MIC), broth dilution; assay type: cell-based; settings: MIC comparison with parent strain
Protocol: (§1) The minimum inhibitory concentrations of (MIC) of CEME, CEMA and melittin were determined for a number of different bacteria (Table 2). Briefly, cells were grown overnight at 37°C in LB-S (Luria broth without any salt supplement) and diluted one in 10,000 in the same medium to give concentrations of about 10^4 to 10^5 CFU/ml. The broth dilutions were set up in a 96 well microtiter plate by putting 200µl of LB-S containing the initial concentration of antibiotic or compound in column 1 and 100 µl of the same medium in columns 2-12. The compounds were diluted by taking 100 µl of broth from column 1 and mixing it with column 2, resulting in a one in two dilution. This was continued to column 10. Finally, 10 µl of bacteria were pipetted into columns 1-11, and the plates incubated overnight at 37°C. The next day the plates were scored for growth in the wells, and the MIC determined.

[2] = system: a number of different bacteria; experiment: as above; assay type: cell-based; settings: MIC comparison
Protocol: as §1

[3] = system: E. coli strain DC2; experiment: Acid-urea gel overlay antibacterial activity test; assay type: cell-based; settings: acid-urea gel overlaid with agar containing ≈ 10^5 E. coli strain DC2, overnight at 37°C
Protocol: A sample of the partially purified CEME protein was electrophoresed on a 15% acid-urea gel, which separates proteins based on charge and mass (Panyim and Chalkey, Arch. Biochem. Biophys., 130:337, 1969). The pH of the buffer is acidic (≈ pH 5.0) and the polarity is reversed such that proteins migrate to the cathode. Therefore, the small cationic peptides run relatively quickly through the gel and thus can be easily identified. Antibacterial activity was tested as previously described (Hultmark, Eur. J. Biochem., 106:7, 1980). The gel was incubated in Mueller Hinton broth + 0.2M NaPO4 pH 7.4 for 1 hr. It was overlaid with 5 mls of the same media containing 0.6% agar and ≈ 10^5 E. coli strain DC2, and then again with 5 ml of the same media containing only 0.6% agar. […] Melittin is used as a positive control due to its antibacterial activity and similarity in size and PI values.

[4] = Synergy: MIC of antibiotics in the presence of sub-MIC levels of cationic peptides; assay type: cell-based
Protocol: as §1
The ability of the cationic peptides to work synergystically was examined by determining the MIC values for some commonly used antibiotics in the presence of sub-MIC levels of cationic peptides (Table 4). […] This may be due to the high membrane permeabilizing activity of CEMA (see below). However, the peptides did lower the MIC of polymyxin B, possibly due to the fact that they are all taken up by the same pathway and are therefore aiding each other's uptake. […]

[5] = system: P. aeruginosa H309; experiment: Lysozyme lysis assay (membrane permeabilization); assay type: cell-based; settings: P. aeruginosa data only
Protocol: Membrane permeabilization by polycationic compounds was measured in two different assays. The first assay measured membrane disruption by the ability of lysozyme to reach the periplasm and cause cell lysis. […] The uptake of tysozyme into whole cells due to membrane permeabilization by various compounds was previously described in Hancock, et al., Antimicrobial Agents and Chemo., 19:777; 1981. Overnight cultures of P. aeruginosa H309 or E. cloacae 218R1 grown in LB-S were diluted 1 in 50 in fresh medium and grown to an OD600 ≈ 0.5-0.6. The cells were harvested in a Silencer H-103N clinical centrifuge at 1800 g for 10 min, washed once with one volume of assay buffer (5 mM HEPES pH 7.2, 5 mM KCN), and resuspended in the same buffer to an OD600 of 0.5. Assays consisted of 600 µl of cells with 50 µg/ml of chicken egg white lysozyme and varying concentrations of cationic compounds. Cell lysis was measured as a decrease in the OD600 in a Perkin-Emmer dual beam spectrophotometer. Parallel experiments performed without lysozyme enabled the measurement of the lytic activity of the compounds themselves. To test whether or not permeability to lysozyme could be inhibited by divalent cations, various concentrations of MgCl2 were added to the assay after the addition of lysozyme and before the addition of the test compound.

[6] = system: P. aeruginosa; experiment: 1-N-phenylnaphthylamine (NPN) uptake assay; assay type: cell-based; settings: 10 µM NPN, FIGURE 7
Source text: (§2) The second assay determined membrane permeability by the ability of 1-N-phenylnaphthylamine (NPN), a small fluorescent probe, to insert itself into the membrane. Normally, very little NPN can penetrate the outer membrane, but in the presence of a membrane permeabilizer it can insert into the hydrophobic membrane resulting in an increase in fluorescence (FIGURES 7 and 8). This N-phenylnaphthylamine uptake assay was previously described by Loh, et al., Antimicrobial Agents and Chemo., 26:546, 1984. Cells were prepared exactly the same as for the lysozyme lysis assay. 1-N-phenylnaphthylamine (NPN) was dissolved in acetone at a concentration of 500 µM. NPN fluorescence was measured in a Perkin-Elmer 650-10S fluorescent spectrophotometer using excitation and emission wavelengths set to 350 nm and 420 nm respectively, with slit widths of 5 nm. The assay was standardized by adding 20 µl of NPN (final concentration of 10 µM) and 10µl of 0.64 mg/ml of polymyxin B (final concentration of 6.4 µg/ml) into 1 ml of cells, and adjusting the resulting fluorescence to read 90% deflection (90 arbitrary units). Various compounds were tested by adding 10 µl of different concentrations to a cuvette containing 1 ml of cells and 10 µM NPN. Permeabilizing activity was designated as the total fluorescence minus the fluorescence due to NPN alone. Following the fluorescence measurement, the OD600 of the cells was taken to ensure no significant cell lysis had occurred.

[7] = system: P. aeruginosa LPS; experiment: Dansyl polymyxin (DPx) displacement assay with purified LPS; assay type: binding; settings: on a µM basis, compared with polymyxin B
Protocol: DPx is a derivative of polymyxin that fluoresces strongly when bound to LPS, but weakly when free in solution. In this assay, DPx was incubated with LPS to saturate the binding sites and then, while polycationic compounds are titrated into the reaction, displacement of the DPx was monitored by the decrease in fluorescence (FIGURE 9). P. aeruginosa LPS was isolated as previously described (Darveau, et al., J. of Bacteriology, 155:831, 1983) Dansyl polymyxin was synthesized as described by Schindler, et al., B. Antimicrobial Agents and Chemo, 8:95, 1975.
Briefly, 40 mgs of polymyxin B and 10 mgs of dansyl chloride were mixed in 2 mls of 60 mM NaHC03 and 40% acetone and incubated in the dark for 90 minutes. […] The dansyl polymyxin was resuspended in 5 mM Hepes pH 7.0, quantitated by dinitrophenylation and stored in aliquots at -20°C.
The method of Moore, et al., (Antimicrobial Agents end Chemo., 29:496, 1987), was used to test how much DPx was needed to saturate the binding sties on LPS. Briefly, 5 µl samples of 100 µM DPx were titrated sequentially into 1ml of 3 µg/ml of LPS until a maximum fluorescence was reached. The fluorescence was measured in a Perkin-Elmer 650-10S fluorescence spectrophotometer with an excitation wavelength of 340 nm and an emission wavelength of 485 nm using slit widths of 5 nm. […]

[8] = system: E. cloacae; experiment: 1-N-phenylnaphthylamine (NPN) uptake assay; assay type: cell-based; settings: 10 µM NPN, FIGURE 8
Source text: as §2

Molecule | sensitivity of the S. typhimurium defensin sensitive strain (C590) [1] | resistance of the mutant SC9252 [2] | zones of clearing at the migration site [3] | effect on the MIC of polymyxin B [4] | permeabilizer for lysozyme relative to gentamicin ([5]; lysis without lysozyme taken into consideration) | cell lysis in the absence of lysozyme ([5]; increased concentrations of peptide) | opening up the membrane to NPN [6] | affinity for LPS (I50) [7] | opening up the membrane to NPN [8]
CC(C)(O/N=C(\C(=O)N[C@@H]1C(=O)N2C(C(=O)[O-])=C(C[n+]3ccccc3)CS[C@H]12)c1csc(N)n1)C(=O)O [ceftazidime] | unchanged | increased resistance | – | – | – | – | – | – | –
gentamicin | two-fold more sensitive | – | – | – | – | – | – | – | –
melittin | two-fold more sensitive | – | zones of clearing | lower than those in the presence of CEME and CEMA | 5- to 10 fold | cell lysis in the absence of lysozyme occurred | less active | slightly lower affinities | –
polymyxin B | four-fold more sensitive | increased resistance | – | – | – | – | equally active | – | equally active
